Results on 1 compound are retold here after paper PMC10174618, “Monoterpenoid aryl hydrocarbon receptor allosteric antagonists protect against ultraviolet skin damage in female mice” (Nature Communications, 2023).

Holding throughout (assay): biochemical
What all share (design): KINOMEscan scanMAX active site-directed competition binding assay, percent of control, 468 kinases
What all share (settings): competition binding, percent of control

Assay [1] concerns the target MYLK2 (Homo sapiens, UniProt Q9H1R3). As for the experimental part:
(§1) The KINOMEscan^TM screening platform (scanMAX assay) employs a proprietary active site-directed competition binding assay that quantitatively measures the interactions between test compounds (here 100 μM S-carvone) and 468 human protein kinases. The assay was performed at Eurofins DiscoverX Corp. (Fremont, CA, USA). Blocking protein kinase C (PKC) activity was reported to inhibit the transcription of CYP1A1 but to exert no effect on the nuclear translocation of AhR[26], which was also the case here with carvones. Therefore, we tested whether carvones inhibit PKC catalytic activity. […] We also evaluated the interaction between 100 μM S-carvone and 468 human protein kinases, employing KINOMEscan^TM (scanMAX assay), a proprietary active site-directed competition binding assay. The minimal inhibitory threshold used by the screening platform KINOMEscan^TM is 35% of the control kinase activity. Among 468 kinases tested, 467 were above the 35% cutoff. Tyrosine kinase 2 TK2 (JH2 domain pseudokinase) activity was inhibited to 27% of the control activity, but this kinase is not relevant to the regulation of transcription activity (Fig. 5B; Figure S9). Overall, we excluded the possibility that the effects of carvones on AhR signaling are caused indirectly by the inhibition of the human kinome, particularly PKC.

The target in assay [2] is STK35 (Homo sapiens, UniProt Q8TDR2). As for the experimental part:
as §1

The target of assay [3] is CLK3 (Homo sapiens, UniProt P49761). The procedure: as §1
Sequence of CLK3 (P49761 whole entry): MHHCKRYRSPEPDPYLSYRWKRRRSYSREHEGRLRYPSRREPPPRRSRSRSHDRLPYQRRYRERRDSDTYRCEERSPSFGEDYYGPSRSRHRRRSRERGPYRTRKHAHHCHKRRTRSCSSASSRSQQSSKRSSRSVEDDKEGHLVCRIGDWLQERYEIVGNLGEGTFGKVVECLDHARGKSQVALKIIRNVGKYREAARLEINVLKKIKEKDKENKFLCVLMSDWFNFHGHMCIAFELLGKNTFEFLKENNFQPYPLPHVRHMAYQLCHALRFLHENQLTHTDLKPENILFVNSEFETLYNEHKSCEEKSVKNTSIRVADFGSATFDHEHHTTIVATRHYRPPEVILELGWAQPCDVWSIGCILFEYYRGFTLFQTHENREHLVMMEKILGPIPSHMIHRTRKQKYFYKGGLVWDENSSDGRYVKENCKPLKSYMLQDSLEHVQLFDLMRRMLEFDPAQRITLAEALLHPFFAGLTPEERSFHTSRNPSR
The target of assay [4] is T1, ASK2 (Homo sapiens, UniProt O95382).
T1 construct: gene MAP3K6
T1 sequence (O95382 whole entry): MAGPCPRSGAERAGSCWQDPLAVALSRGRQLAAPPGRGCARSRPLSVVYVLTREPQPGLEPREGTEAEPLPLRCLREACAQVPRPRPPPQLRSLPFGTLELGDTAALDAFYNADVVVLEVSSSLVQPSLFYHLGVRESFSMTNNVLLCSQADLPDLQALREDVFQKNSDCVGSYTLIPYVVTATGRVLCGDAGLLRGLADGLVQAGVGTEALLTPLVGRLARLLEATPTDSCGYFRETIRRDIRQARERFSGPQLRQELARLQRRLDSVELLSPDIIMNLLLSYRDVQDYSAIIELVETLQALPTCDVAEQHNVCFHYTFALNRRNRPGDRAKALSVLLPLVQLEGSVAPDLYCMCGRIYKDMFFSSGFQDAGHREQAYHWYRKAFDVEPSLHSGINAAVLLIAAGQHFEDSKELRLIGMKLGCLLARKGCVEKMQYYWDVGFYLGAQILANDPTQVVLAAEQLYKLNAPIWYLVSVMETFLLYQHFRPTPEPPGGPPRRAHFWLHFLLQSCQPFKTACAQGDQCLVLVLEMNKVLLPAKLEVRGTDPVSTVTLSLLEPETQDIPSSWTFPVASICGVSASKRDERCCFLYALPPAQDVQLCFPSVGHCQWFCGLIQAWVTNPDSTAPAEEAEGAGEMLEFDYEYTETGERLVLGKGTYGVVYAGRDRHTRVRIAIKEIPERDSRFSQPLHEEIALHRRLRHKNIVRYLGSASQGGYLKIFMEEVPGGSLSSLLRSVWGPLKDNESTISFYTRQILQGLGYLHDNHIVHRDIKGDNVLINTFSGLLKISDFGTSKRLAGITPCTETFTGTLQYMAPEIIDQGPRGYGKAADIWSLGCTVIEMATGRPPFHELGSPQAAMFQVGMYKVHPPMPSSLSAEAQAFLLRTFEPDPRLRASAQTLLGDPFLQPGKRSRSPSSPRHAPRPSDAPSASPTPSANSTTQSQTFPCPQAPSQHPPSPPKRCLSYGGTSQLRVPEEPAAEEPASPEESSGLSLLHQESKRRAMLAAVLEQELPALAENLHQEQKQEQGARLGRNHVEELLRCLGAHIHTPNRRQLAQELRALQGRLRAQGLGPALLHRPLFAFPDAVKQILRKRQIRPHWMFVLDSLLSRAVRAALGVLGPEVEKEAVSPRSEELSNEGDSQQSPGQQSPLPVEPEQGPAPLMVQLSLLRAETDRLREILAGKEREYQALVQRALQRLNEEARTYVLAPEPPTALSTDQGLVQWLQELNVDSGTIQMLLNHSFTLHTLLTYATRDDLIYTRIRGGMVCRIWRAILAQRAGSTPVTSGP
The procedure: as §1

The target of assay [5] is CAMK2B (Homo sapiens, UniProt Q13554). As for the experimental part: as §1
Assay [6] has as its target EGFR(S752-I759del) (Homo sapiens, UniProt P00533, DEL752-759). The procedure:
as §1

The target of assay [7] is T2, ABL1(F317I)-nonphosphorylated (Homo sapiens, UniProt P00519, F317I).
T2 construct: nonphosphorylated
As for the experimental part: as §1

Assay [8] addresses T3, RSK3(Kin.Dom.1-N-terminal) (Homo sapiens, UniProt Q15349).
T3 construct: gene RPS6KA2; Kin.Dom.1-N-terminal
The procedure:
as §1

Assay [9] concerns the target WNK3 (Homo sapiens, UniProt Q9BYP7). The procedure: as §1
For assay [10], the target named is MARK3 (Homo sapiens, UniProt P27448). The procedure: as §1
Assay [11] concerns the target T4, ABL1(T315I)-phosphorylated (Homo sapiens, UniProt P00519, T315I).
T4 construct: phosphorylated
The procedure: as §1

For assay [12], the target named is T5, MLCK (Homo sapiens, UniProt Q32MK0).
T5 construct: gene MYLK3
T5 sequence (Q32MK0 whole entry): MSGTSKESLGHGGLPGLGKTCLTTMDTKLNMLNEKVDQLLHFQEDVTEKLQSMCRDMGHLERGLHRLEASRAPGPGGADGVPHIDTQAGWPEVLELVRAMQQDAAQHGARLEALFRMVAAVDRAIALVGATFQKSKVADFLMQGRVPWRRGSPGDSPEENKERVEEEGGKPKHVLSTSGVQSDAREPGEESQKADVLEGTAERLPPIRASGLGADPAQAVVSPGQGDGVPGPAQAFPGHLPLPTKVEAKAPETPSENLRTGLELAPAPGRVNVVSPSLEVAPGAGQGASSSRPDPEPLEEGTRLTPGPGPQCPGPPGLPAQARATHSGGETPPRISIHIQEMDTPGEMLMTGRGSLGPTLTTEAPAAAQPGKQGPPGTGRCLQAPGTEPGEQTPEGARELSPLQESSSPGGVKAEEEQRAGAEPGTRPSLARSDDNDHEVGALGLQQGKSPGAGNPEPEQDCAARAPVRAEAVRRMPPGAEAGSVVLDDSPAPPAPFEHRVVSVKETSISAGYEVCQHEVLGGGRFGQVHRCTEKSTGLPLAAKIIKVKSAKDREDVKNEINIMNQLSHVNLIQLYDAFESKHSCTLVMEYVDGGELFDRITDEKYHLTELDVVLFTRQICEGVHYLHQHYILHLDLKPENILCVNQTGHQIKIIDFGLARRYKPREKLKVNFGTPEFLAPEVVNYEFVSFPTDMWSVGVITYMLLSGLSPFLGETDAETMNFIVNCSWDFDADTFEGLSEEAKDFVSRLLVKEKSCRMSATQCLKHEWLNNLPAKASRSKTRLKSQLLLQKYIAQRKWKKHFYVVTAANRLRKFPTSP
As for the experimental part:
as §1

In assay [13] the target is T6, CDC2L1 (Homo sapiens, UniProt P21127).
T6 construct: gene CDK11B
T6 sequence (P21127 whole entry): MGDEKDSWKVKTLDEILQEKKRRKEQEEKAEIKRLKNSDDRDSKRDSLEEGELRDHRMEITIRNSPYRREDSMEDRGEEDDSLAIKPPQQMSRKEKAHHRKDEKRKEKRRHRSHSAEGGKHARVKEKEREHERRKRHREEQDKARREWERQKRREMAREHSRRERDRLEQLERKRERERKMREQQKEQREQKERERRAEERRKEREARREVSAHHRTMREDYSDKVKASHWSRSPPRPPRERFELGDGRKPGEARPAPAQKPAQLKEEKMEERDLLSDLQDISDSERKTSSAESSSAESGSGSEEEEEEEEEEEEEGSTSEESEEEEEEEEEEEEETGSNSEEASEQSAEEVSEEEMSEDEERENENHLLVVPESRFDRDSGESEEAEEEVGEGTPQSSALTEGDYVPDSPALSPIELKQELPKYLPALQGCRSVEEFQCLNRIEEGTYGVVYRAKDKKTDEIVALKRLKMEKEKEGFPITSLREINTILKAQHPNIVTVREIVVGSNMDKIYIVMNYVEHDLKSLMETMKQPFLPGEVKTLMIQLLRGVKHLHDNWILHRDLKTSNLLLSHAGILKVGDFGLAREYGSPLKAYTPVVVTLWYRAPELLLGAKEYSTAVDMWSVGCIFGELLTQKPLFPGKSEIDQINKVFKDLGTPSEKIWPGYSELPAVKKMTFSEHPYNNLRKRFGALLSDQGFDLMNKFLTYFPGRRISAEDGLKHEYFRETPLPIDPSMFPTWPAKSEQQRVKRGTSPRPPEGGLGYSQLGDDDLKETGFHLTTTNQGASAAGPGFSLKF
As for the experimental part: as §1

In assay [14] the target is MAST1 (Homo sapiens, UniProt Q9Y2H9). The procedure:
as §1

For assay [15], the target named is CAMKK2 (Homo sapiens, UniProt Q96RR4). As for the experimental part:
as §1

Assay [16] deals with T7, NIK (Homo sapiens, UniProt Q99558).
T7 construct: gene MAP3K14
As for the experimental part:
as §1

In assay [17] the target is T8, MST3 (Homo sapiens, UniProt Q9Y6E0).
T8 construct: gene STK24
The procedure: as §1

Assay [18] has as its target T9, ABL1(Q252H)-phosphorylated (Homo sapiens, UniProt P00519, Q252H).
T9 construct: phosphorylated
The procedure: as §1

Assay [19] addresses ERN1 (Homo sapiens, UniProt O75460). The procedure:
as §1

Assay [20] deals with PRKCE (Homo sapiens, UniProt Q02156). The procedure:
as §1

The target of assay [21] is MAP3K2 (Homo sapiens, UniProt Q9Y2U5). The procedure: as §1
Sequence of MAP3K2 (Q9Y2U5 whole entry): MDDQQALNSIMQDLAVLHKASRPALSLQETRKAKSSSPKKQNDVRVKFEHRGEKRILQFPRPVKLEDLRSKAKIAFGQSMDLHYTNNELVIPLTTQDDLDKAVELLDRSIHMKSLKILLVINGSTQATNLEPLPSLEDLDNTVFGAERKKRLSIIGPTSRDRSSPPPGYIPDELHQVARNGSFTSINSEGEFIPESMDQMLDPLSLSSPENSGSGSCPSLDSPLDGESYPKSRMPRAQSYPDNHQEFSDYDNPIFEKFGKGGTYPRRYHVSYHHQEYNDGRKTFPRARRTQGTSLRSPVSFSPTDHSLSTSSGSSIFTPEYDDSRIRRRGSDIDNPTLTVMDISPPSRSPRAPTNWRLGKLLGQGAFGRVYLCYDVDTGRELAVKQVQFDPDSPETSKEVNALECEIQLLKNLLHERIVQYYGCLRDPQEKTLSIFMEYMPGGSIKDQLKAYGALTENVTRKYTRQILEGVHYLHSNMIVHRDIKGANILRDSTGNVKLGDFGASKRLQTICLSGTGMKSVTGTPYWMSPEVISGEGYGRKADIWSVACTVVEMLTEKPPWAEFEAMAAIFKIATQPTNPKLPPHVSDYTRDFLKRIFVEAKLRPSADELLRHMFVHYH

Structures are written as SMILES.

Sequence of ERN1 (O75460 whole entry): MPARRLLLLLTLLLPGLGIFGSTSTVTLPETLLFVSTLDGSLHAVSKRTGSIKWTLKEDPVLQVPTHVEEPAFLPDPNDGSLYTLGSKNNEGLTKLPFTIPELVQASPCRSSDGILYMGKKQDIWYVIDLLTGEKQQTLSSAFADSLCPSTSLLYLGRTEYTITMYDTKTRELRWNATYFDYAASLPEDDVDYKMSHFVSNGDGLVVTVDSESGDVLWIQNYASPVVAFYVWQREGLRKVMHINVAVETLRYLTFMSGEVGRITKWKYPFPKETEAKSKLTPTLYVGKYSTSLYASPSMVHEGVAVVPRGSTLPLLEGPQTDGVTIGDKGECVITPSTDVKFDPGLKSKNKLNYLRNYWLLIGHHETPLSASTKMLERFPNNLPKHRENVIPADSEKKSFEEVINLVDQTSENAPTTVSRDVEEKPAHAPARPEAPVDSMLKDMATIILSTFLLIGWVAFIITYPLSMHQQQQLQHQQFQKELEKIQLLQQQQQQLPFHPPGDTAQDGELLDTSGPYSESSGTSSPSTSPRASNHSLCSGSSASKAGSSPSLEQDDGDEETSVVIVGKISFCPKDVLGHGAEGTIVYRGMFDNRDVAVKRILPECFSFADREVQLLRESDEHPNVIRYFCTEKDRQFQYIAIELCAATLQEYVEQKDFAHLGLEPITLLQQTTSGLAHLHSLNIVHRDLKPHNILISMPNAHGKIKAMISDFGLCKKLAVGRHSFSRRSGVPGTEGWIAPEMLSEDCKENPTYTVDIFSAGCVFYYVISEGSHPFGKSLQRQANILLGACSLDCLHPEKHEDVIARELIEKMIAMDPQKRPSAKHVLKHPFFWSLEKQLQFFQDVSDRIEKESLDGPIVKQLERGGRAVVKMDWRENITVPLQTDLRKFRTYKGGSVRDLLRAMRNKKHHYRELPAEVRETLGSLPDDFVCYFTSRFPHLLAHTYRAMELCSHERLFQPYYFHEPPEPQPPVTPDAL

Take `C=C(C)[C@H]1CC=C(C)C(=O)C1` [S-carvone]: the remaining binding at 100 µM in assay [1] was determined as 100%; in [2] it was 92%; in assay [3] it was 99%; in assay [4] it was 100%; in assay [5] it was 86%; in [6], 66%. In addition, the remaining binding at 100 µM turned out to be 64% in assay [7]; 94% in assay [8]; 100% in assay [9]; 68% in [10]; 88% in assay [11]; 98% in [12]. Also, the remaining binding at 100 µM in [13] was 90%; in assay [14], 75%; in assay [15] it was 81%; in assay [16] it was 84%; in assay [17] it was 64%; in [18], 55%. The remaining binding at 100 µM in assay [19] was determined as 90%; in assay [20], 94%; in [21], 58%.
